Reference: patent publication US7880002B2, “Substituted piperazinyl-pyrrolidine compounds useful as chemokine receptor antagonists” (Millennium Pharmaceuticals, Inc., priority 2004, dated 2011)

The compounds below were run against T1, CCR1 (Homo sapiens, UniProt P32246) (assay: CCR1 inhibition (THP-1 FLIPR assay / THP-1 whole cell radioligand binding assay; the patent does not say which gave the values)). Conditions: threshold list, less than 100 nm; compounds of Table 1; read-out: inhibitory activity.
T1 construct: a monocytic derived cell line that endogenously expresses CCR1; host or cells: THP-1 cells
T1 sequence (P32246 1-355): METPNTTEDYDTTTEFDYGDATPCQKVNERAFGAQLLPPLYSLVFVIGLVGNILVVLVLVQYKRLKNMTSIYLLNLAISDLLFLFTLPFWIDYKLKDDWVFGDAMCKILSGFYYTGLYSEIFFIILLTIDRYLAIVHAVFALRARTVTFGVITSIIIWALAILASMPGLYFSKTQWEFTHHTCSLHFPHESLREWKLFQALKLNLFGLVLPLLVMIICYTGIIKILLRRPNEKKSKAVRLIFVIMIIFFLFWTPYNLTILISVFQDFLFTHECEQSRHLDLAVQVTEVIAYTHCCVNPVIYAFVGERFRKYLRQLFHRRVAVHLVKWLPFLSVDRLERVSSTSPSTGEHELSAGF
Assay type: cell-based
Method: The primary screening assay is a FLIPR® (Fluorometric Imaging Plate Reader, available from Molecular Devices Corporation, Sunnyvale, Calif.) assay using THP-1 cells (ATCC, Catalog No. TIB 202), a monocytic derived cell line that endogenously expresses CCR1.
The cells were resuspended at 1×10^6 cells/ml in dye loading media (growth media (RPMI+10% FBS (Fetal Bovine serum)+5.5×10^−5M 2-mercaptoethanol)+10 mM HEPES (N-2-hydroxyethylpiperazine-N′-2-ethane-sulfonic acid)+2.5 mM probenecid+fluo-3 (1:250)). The cells were incubated for 1 hour at 37° C. and then washed in FLIPR wash buffer (100 mL 10× HBSS (Hanks Buffered Saline Solution) (w/Ca++/Mg++)+20 mL 1M HEPES+1 g BSA+10 mL 250 mM probenecid+water (to make 1 L)) and plated at 50,000 cells/well in black/clear 384 well plates. The plates were transferred to FLIPR where the ability of different concentrations of compounds to inhibit RANTES induced calcium flux was assessed. Inhibition of the CCR1 response was reflected by a decrease of the fluorescence signal relative to the positive controls (RANTES alone).
THP-1 Whole Cell Radioligand Binding Assay
The cells were washed with PBS (phosphate buffered saline) and resuspended in binding buffer (10 mM HEPES pH 7.2, 1× HBSS (w/Ca^2+, Mg^2+) 0.5% BSA, 0.02% Na-azide) at 4×10^6 cells/ml (for 200, 000 cells/well). Cells were incubated with 0.1 to 0.2 nM [^125I]-labeled MIP-1α with or without unlabeled competitor (MIP-1α) or various concentrations of compounds for 60 minutes at room temperature. The assay was terminated by vacuum filtration through glass fiber filters (GF/B, Packard) which were presoaked in 0.3% polyethyleneimine. The filters were washed with wash buffer (10 mM HEPES, pH 7.2, 1 mM CaCl2, 5 mM MgCl2 0.5M NaCl), dried and the amount of bound radioactivity was determined by scintillation counting.

IC50	SMILES
< 100 nM	CN(C)c1ccc2nc(C(F)(F)F)nc(N3C[C@H](O)[C@@H](N4CCN(C(=O)c5ccc(Cl)cc5)CC4)C3)c2c1 (stereo in doubt) [Example 187, 4-[4-(4-chlorobenzoyl)piperazin-1-yl]-1-[6-(dimethylamino)-2-(trifluoromethyl)quinazolin-4-yl]pyrrolidin-3-ol]
< 100 nM	O=C(c1ccc(Cl)cc1)N1CCN([C@@H]2CN(c3ncnc4cc(Cl)c(F)cc34)C[C@H]2O)CC1 (stereo in doubt) [Example 161, 4-[4-(4-chlorobenzoyl)piperazin-1-yl]-1-(7-chloro-6-fluoroquinazolin-4-yl)pyrrolidin-3-ol]
< 100 nM	N#Cc1ccc2nc(C(F)(F)F)nc(N3C[C@@H](O)[C@H](N4CCN(C(=O)c5ccc(Cl)cc5)CC4)C3)c2c1 (stereo in doubt) [Example 203, 4-{3-[4-(4-chlorobenzoyl)piperazin-1-yl]-4-hydroxypyrrolidin-1-yl}-2-(trifluoromethyl)quinazoline-6-carbonitrile]
< 100 nM	Cc1nc2ccccc2nc1N1C[C@H](O)[C@@H](N2CCN(C(=O)c3ccc(Cl)cc3)CC2)C1 (stereo in doubt) [Example 125, 4-[4-(4-chlorobenzoyl)piperazin-1-yl]-1-(3-methylquinoxalin-2-yl)pyrrolidin-3-ol]
< 100 nM	NC(=O)Nc1ccc2nc(C(F)(F)F)nc(N3C[C@H](O)[C@@H](N4CCN(C(=O)c5ccc(Cl)cc5)CC4)C3)c2c1 (stereo in doubt) [Example 194, N-[4-{3-[4-(4-chlorobenzoyl)piperazin-1-yl]-4-hydroxypyrrolidin-1-yl}-2-(trifluoromethyl)quinazolin-6-yl]urea]
< 100 nM	O=C(c1ccc(Cl)cc1)N1CCN([C@H]2CN(c3nc(C(F)(F)F)nc4ccc([N+](=O)[O-])cc34)C[C@@H]2O)CC1 (stereo in doubt) [Example 188, 4-[4-(4-chlorobenzoyl)piperazin-1-yl]-1-[6-nitro-2-(trifluoromethyl)quinazolin-4-yl]pyrrolidin-3-ol]
< 100 nM	O=C(c1ccc(Cl)cc1)N1CCN([C@@H]2CN(c3ncnc4ccc(Cl)cc34)C[C@H]2O)CC1 (stereo in doubt) [Example 81, 4-[4-(4-chlorobenzoyl)piperazin-1-yl]-1-(6-chloroquinazolin-4-yl)pyrrolidin-3-ol]
< 100 nM	O=C(c1ccc(Cl)cc1)N1CCN([C@@H]2CN(c3cc(C(F)(F)F)cc(C(F)(F)F)c3)C[C@H]2O)CC1 (stereo in doubt) [Example 113, 1-[3,5-bis(trifluoromethyl)phenyl]-4-[4-(4-chlorobenzoyl)piperazin-1-yl]pyrrolidin-3-ol]
< 100 nM	O=C(c1ccc(Cl)cc1)N1CCN([C@@H]2CN(c3nc(C(F)(F)F)cc(C(F)(F)F)n3)C[C@H]2O)CC1 (stereo in doubt) [Example 109, 1-[4,6-bis(trifluoromethyl)pyrimidin-2-yl]-4-[4-(4-chlorobenzoyl)piperazin-1-yl]pyrrolidin-3-ol]
< 100 nM	O=C(c1ccc(Cl)cc1)N1CCN([C@H]2CN(c3nc(C(F)(F)F)nc4cc(F)ccc34)C[C@@H]2O)CC1 (stereo in doubt) [Example 171, 4-[4-(4-chlorobenzoyl)piperazin-1-yl]-1-[7-fluoro-2-(trifluoromethyl)quinazolin-4-yl]pyrrolidin-3-ol]
< 100 nM	O=C(c1ccc(Cl)cc1)N1CCN([C@@H]2CN(c3ccnc4cc(C(F)(F)F)ccc34)C[C@H]2O)CC1 [Example 12, 4-[4-(4-chlorobenzoyl)piperazin-1-yl]-1-[7-(trifluoromethyl)quinolin-4-yl]pyrrolidin-3-ol]
< 100 nM	CCOc1ccc2nc(C(F)(F)F)nc(N3C[C@H](O)[C@@H](N4CCN(C(=O)c5ccc(Cl)cc5)CC4)C3)c2c1 (stereo in doubt) [Example 184, 4-[4-(4-chlorobenzoyl)piperazin-1-yl]-1-[6-ethoxy-2-(trifluoromethyl)quinazolin-4-yl]pyrrolidin-3-ol]
< 100 nM	O=C(c1ccc(Cl)cc1)N1CCN([C@@H]2CN(c3nc(-c4ccccc4)nc4ccccc34)C[C@H]2O)CC1 [Example 101, 4-[4-(4-chlorobenzoyl)piperazin-1-yl]-1-(2-phenylquinazolin-4-yl)pyrrolidin-3-ol]
< 100 nM	O[C@@H]1CN(c2ncnc3cc(Cl)ccc23)C[C@H]1N1CCN(Cc2ccc(Cl)cc2)CC1 [Example 141, (3R,4R)-4-[4-(4-chlorobenzyl)piperazin-1-yl]-1-(7-chloroquinazolin-4-yl)pyrrolidin-3-ol]
< 100 nM	COC(=O)c1ccc2nc(C(F)(F)F)nc(N3C[C@@H](O)[C@H](N4CCN(C(=O)c5ccc(Cl)cc5)CC4)C3)c2c1 (stereo in doubt) [Example 180, methyl 4-{3-[4-(4-chlorobenzoyl)piperazin-1-yl]-4-hydroxypyrrolidin-1-yl}-2-(trifluoromethyl)quinazoline-6-carboxylate]
< 100 nM	O=C(c1ccc(Cl)cc1)N1CCN([C@@H]2CN(c3ncnc4cc(F)c(F)cc34)C[C@H]2O)CC1 (stereo in doubt) [Example 102, 4-[4-(4-chlorobenzoyl)piperazin-1-yl]-1-(6,7-difluoroquinazolin-4-yl)pyrrolidin-3-ol]
< 100 nM	Cc1nc(C(F)(F)F)nc(N2C[C@H](O)[C@@H](N3CCN(C(=O)c4ccc(Cl)cc4)CC3)C2)c1C [Example 157, (3S,4S)-4-[4-(4-chlorobenzoyl)piperazin-1-yl]-1-[5,6-dimethyl-2-(trifluoromethyl)pyrimidin-4-yl]pyrrolidin-3-ol]
< 100 nM	O=C(c1ccc(Cl)cc1)N1CCN([C@H]2CN(c3cc(C(F)(F)F)nc4c(C(F)(F)F)cccc34)C[C@@H]2O)CC1 (stereo in doubt) [Example 26, 1-[2,8-bis(trifluoromethyl)quinolin-4-yl]-4-[4-(4-chlorobenzoyl)piperazin-1-yl]pyrrolidin-3-ol]
< 100 nM	COC(=O)Nc1ccc2nc(C(F)(F)F)nc(N3C[C@H](O)[C@@H](N4CCN(C(=O)c5ccc(Cl)cc5)CC4)C3)c2c1 (stereo in doubt) [Example 190, methyl [4-{3-[4-(4-chlorobenzoyl)piperazin-1-yl]-4-hydroxypyrrolidin-1-yl}-2-(trifluoromethyl)quinazolin-6-yl]carbamate]
< 100 nM	O=C(c1ccc(Cl)cc1)N1CCN([C@H]2CN(c3nc(C(F)(F)F)nc4ccc(Cl)cc34)C[C@@H]2O)CC1 (stereo in doubt) [Example 173, 4-[4-(4-chlorobenzoyl)piperazin-1-yl]-1-[6-chloro-2-(trifluoromethyl)quinazolin-4-yl]pyrrolidin-3-ol]
< 100 nM	CC(C)(C)c1cc(C(F)(F)F)nc(N2CC(O)C(N3CCN(C(=O)c4ccc(Cl)cc4)CC3)C2)n1 (stereo not shown) [Example 129, 1-[4-tert-butyl-6-(trifluoromethyl)pyrimidin-2-yl]-4-[4-(4-chlorobenzoyl)piperazin-1-yl]pyrrolidin-3-ol]
< 100 nM	CC(C)c1cc(C(F)(F)F)nc(N2C[C@@H](O)[C@H](N3CCN(C(=O)c4ccc(Cl)cc4)CC3)C2)n1 (stereo in doubt) [Example 123, 4-[4-(4-chlorobenzoyl)piperazin-1-yl]-1-[4-isopropyl-6-(trifluoromethyl)pyrimidin-2-yl]pyrrolidin-3-ol]
< 100 nM	Cc1cc(N2C[C@@H](O)[C@H](N3CCN(C(=O)c4ccc(Cl)cc4)CC3)C2)nc(C(F)(F)F)n1 (stereo in doubt) [Example 146, 4-[4-(4-chlorobenzoyl)piperazin-1-yl]-1-[6-methyl-2-(trifluoromethyl)pyrimidin-4-yl]pyrrolidin-3-ol]
< 100 nM	O=C(O)c1ccc2nc(C(F)(F)F)nc(N3C[C@@H](O)[C@H](N4CCN(C(=O)c5ccc(Cl)cc5)CC4)C3)c2c1 (stereo in doubt) [Example 181, 4-{3-[4-(4-chlorobenzoyl)piperazin-1-yl]-4-hydroxypyrrolidin-1-yl}-2-(trifluoromethyl)quinazoline-6-carboxylic acid]
< 100 nM	Cc1cc(C(F)(F)F)nc(N2C[C@@H](O)[C@H](N3CCN(C(=O)c4ccc(Cl)cc4)CC3)C2)n1 (stereo in doubt) [Example 107, 4-[4-(4-chlorobenzoyl)piperazin-1-yl]-1-[4-methyl-6-(trifluoromethyl)pyrimidin-2-yl]pyrrolidin-3-ol]
